{
  "source": "patent US9492468B2",
  "about": "“Methods and compositions for treatment of acute heart failure” (PERICOR THERAPEUTICS, INC., priority 2008, dated 2016)",
  "key": {"A3 receptors": {"target": "T1, A3 receptors (Homo sapiens, UniProt P0DMS8)", "T1 sequence (P0DMS8 1-318)": "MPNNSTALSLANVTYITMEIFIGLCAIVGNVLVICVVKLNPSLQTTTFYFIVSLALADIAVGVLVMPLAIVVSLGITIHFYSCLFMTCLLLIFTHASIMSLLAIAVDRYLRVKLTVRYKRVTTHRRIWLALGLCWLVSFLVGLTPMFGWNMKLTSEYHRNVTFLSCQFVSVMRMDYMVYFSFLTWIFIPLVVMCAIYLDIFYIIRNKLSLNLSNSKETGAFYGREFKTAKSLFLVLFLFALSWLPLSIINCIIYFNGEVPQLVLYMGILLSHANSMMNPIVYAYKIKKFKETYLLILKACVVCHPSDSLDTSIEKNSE", "test": "Ligand status at adenosine A3 receptor", "type": "binding"}, "[1]": {"test": "Octanol:water partition coefficient", "type": "physicochemical", "details": "read-out: Octanol: water partition coefficient (log P)", "source_text": "Administering a better absorbed more lipophilic prodrug, which is subsequently hydrolysed to GP531, achieves an increase in the systemic availability of GP531."}, "Troponin-I": {"test_system": "Troponin-I", "test": "Plasma troponin-I, 6 hours infusion study", "type": "in vivo, dog", "details": "HF dogs n=6; for Plasma TnI: iv 10 μg/kg/min constant infusion", "experimental": "(§1) Six heart failure dogs described in Example 1 were used. Studies using active drug and placebo were performed in each dog in random order a minimum of one week apart. After baseline hemodynamic, angiographic and echocardiographic measurements, GP-531 tartrate or placebo was administered as a continuous constant intravenous infusion for 6 hours. The dose of GP-531 tartrate was 10 μg/kg/min. Complete hemodynamic, angiographic and echocardiographic measurements were made during baseline, and at 1, 2, 3, 4, 5 and 6 hours after initiating drug infusion. In addition, myocardial oxygen consumption (MVO2) was measured at baseline and 4 and 6 hours after initiating drug or saline infusion. LV pressure-volume relationships (P-V Loops) were also measured at baseline and at 6 hours after initiating drug or saline infusion to assess load independent contractility and relaxation. Venous blood samples were obtained at baseline and hourly thereafter. Blood samples (at least […]) were centrifuged at 3000 rpm for 10 minutes and plasma withdrawn and placed in cryostorage tubes and stored upright at −20° C. until needed. Venous blood samples were used to evaluate plasma levels of troponin-I and plasma levels of n-terminal pro-brain natriuretic peptide (NT-proBNP).\n(§2) Plasma biomarkers were measured in all dogs at all study time points. Troponin I (TnI) was determined in plasma based on the principle of the double antibody sandwich enzyme-linked immunosorbent assay (ELISA) (Hirano, T., et al, Immunol Today 1990, 11:443-449) and NT-pro-BNP based on competitive ELISA (Bonow, R. O. Circulation 1996, 93:1946-1950). Both biomarkers were assayed using commercially available assay kits. Kits for NT-proBNP and TnI were purchased from ALPCO Diagnostics, Salem, N.H. Using standard curves and software, the concentration of each biomarker was expressed as ng/ml for TnI and fmol/ml for NT-proBNP."}, "A1 receptors": {"target": "T2, A1 receptors (Homo sapiens, UniProt P30542)", "T2 sequence (P30542 1-326)": "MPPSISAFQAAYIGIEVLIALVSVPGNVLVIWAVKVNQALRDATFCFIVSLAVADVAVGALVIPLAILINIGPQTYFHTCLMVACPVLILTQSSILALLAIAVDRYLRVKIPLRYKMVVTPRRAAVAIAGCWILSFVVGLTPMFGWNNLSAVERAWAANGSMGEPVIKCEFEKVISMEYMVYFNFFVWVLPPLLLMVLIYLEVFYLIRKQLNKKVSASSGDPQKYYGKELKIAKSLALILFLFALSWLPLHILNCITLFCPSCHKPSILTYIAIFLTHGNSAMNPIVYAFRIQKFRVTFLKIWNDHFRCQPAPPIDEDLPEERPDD", "test": "Ligand status at adenosine A1 receptor", "type": "binding"}, "TnI": {"test_system": "TnI", "test": "Plasma troponin I (sandwich ELISA), dose escalation study", "type": "in vivo, dog", "experimental": "Eight heart failure dogs described in Example 1 were used. Seven of 8 dogs underwent two studies, one with active drug GP-531 tartrate and one with vehicle (placebo) and 1 of 8 dogs underwent only one active drug GP-531 study. The order of active drug and placebo was randomized and performed about one week apart. In 6 of 8 dogs, after baseline hemodynamic, and ventriculographic measurements, vehicle was administered as a continuous intravenous infusion for one hour. At the end of one hour, the active drug GP-531 tartrate was administered in 3 escalating dose of continuous intravenous infusion with each dose maintained for one hour. At the end of the last drug dose, infusion was stopped and a washout period of one hour was instituted. The same infusion rates and times between doses were used when vehicle studies were performed. At the end of each hour, hemodynamic and angiographic measurements were made. Venous blood samples were obtained at baseline and at one hour after each dose. Blood samples (at least 10 mL) were centrifuged at 3000 rpm for 10 minutes and plasma withdrawn and placed in cryostorage tubes and stored upright at −20° C. for future use. In 2 of 8 dogs, active drug was administered as bolus followed by a constant infusion for 3 hours as noted below.\nas §2, with “measured in Groups I and II. Troponin I” for “measured in all dogs at all study time points. Troponin I”, “T., et al., Immunol Today” for “T., et al, Immunol Today”, “11:443-449) and n-terminal brain natriuretic peptide (NT-pro-BNP) based on” for “11:443-449) and NT-pro-BNP based on”, “Kits for NT proBNP and TnI” for “Kits for NT-proBNP and TnI”"}, "[2]": {"details": "previous studies; cited from earlier work"}, "A2 receptors": {"test_system": "A2 receptors", "test": "Ligand status at adenosine A2 receptor", "type": "binding"}, "[3]": {"details": "in man; cited from earlier work"}, "NT-ProBNP": {"test_system": "NT-ProBNP", "test": "Plasma NT-proBNP, 6 hours infusion study", "type": "in vivo, dog", "details": "HF dogs n=6; for Plasma NT-ProBNP: iv 10 μg/kg/min constant infusion", "experimental": "as §1, §2"}},
  "note": "Where a name gives a salt, the structure may show the parent alone.",
  "data": [
    {"molecule": "NC(=O)c1ncn(C2OC(CNCc3ccccc3)C(O)C2O)c1N", "note": "[GP-531, 5-amino-1-β-D-(5-benzylamino-5-deoxy-1-β-D-ribofuranosyl)imidazole-4 carboxamide]", "values": [
      {"measurement": "Ligand for A3 receptors", "setting": "A3 receptors", "value": "has not been shown to be a ligand"},
      {"measurement": "logP", "setting": "[1]", "value": -0.91},
      {"measurement": "Plasma TnI", "setting": "Troponin-I; 1 h", "value": "0.57 ± 0.02", "unit": "pg/mL"},
      {"measurement": "Plasma TnI", "setting": "Troponin-I; 2 h", "value": "0.58 ± 0.02", "unit": "pg/mL"},
      {"measurement": "Plasma TnI", "setting": "Troponin-I; 3 h", "value": "0.38 ± 0.03", "unit": "pg/mL"},
      {"measurement": "Plasma TnI", "setting": "Troponin-I; 4 h", "value": "0.43 ± 0.03", "unit": "pg/mL"},
      {"measurement": "Plasma TnI", "setting": "Troponin-I; 5 h", "value": "0.41 ± 0.03", "unit": "pg/mL"},
      {"measurement": "Plasma TnI", "setting": "Troponin-I; 6 h", "value": "0.42 ± 0.06", "unit": "pg/mL"},
      {"measurement": "Effect on plasma troponin-I", "setting": "Troponin-I; iv 10 μg/kg/min for 6 h", "value": "significantly reduced"},
      {"measurement": "Ligand for A1 receptors", "setting": "A1 receptors", "value": "has not been shown to be a ligand"},
      {"measurement": "Plasma TnI", "setting": "TnI; Group I HF dogs n=3, 1 h washout after 30/100/300 μg/kg/min", "value": "0.36 ± 0.03", "unit": "pg/mL"},
      {"measurement": "Plasma TnI", "setting": "TnI; Group I HF dogs n=3, iv 30 μg/kg/min, 1 h", "value": "0.17 ± 0.03", "unit": "pg/mL"},
      {"measurement": "Plasma TnI", "setting": "TnI; Group I HF dogs n=3, iv 100 μg/kg/min, 1 h", "value": "0.13 ± 0.02", "unit": "pg/mL"},
      {"measurement": "Plasma TnI", "setting": "TnI; Group I HF dogs n=3, iv 300 μg/kg/min, 1 h", "value": "0.15 ± 0.05", "unit": "pg/mL"},
      {"measurement": "Plasma TnI", "setting": "TnI; Group II HF dogs n=3, 1 h washout after 3/10/30 μg/kg/min", "value": "0.31 ± 0.05", "unit": "pg/mL"},
      {"measurement": "Plasma TnI", "setting": "TnI; Group II HF dogs n=3, iv 3 μg/kg/min, 1 h", "value": "0.51 ± 0.05", "unit": "pg/mL"},
      {"measurement": "Plasma TnI", "setting": "TnI; Group II HF dogs n=3, iv 10 μg/kg/min, 1 h", "value": "0.50 ± 0.15", "unit": "pg/mL"},
      {"measurement": "Plasma TnI", "setting": "TnI; Group II HF dogs n=3, iv 30 μg/kg/min, 1 h", "value": "0.19 ± 0.05", "unit": "pg/mL"},
      {"measurement": "Metabolism", "setting": "[2]", "value": "not metabolized"},
      {"measurement": "Route of clearance", "setting": "[2]", "value": "cleared almost entirely intact in urine"},
      {"measurement": "Ligand for A2 receptors", "setting": "A2 receptors", "value": "has not been shown to be a ligand"},
      {"measurement": "Oral bioavailability", "setting": "[3]", "value": "~10", "unit": "%"},
      {"measurement": "Plasma NT-ProBNP", "setting": "NT-ProBNP; 1 h", "value": "140 ± 13", "unit": "fmol/mL"},
      {"measurement": "Plasma NT-ProBNP", "setting": "NT-ProBNP; 2 h", "value": "131 ± 11", "unit": "fmol/mL"},
      {"measurement": "Plasma NT-ProBNP", "setting": "NT-ProBNP; 3 h", "value": "127 ± 12", "unit": "fmol/mL"},
      {"measurement": "Plasma NT-ProBNP", "setting": "NT-ProBNP; 4 h", "value": "134 ± 11", "unit": "fmol/mL"},
      {"measurement": "Plasma NT-ProBNP", "setting": "NT-ProBNP; 5 h", "value": "130 ± 10", "unit": "fmol/mL"},
      {"measurement": "Plasma NT-ProBNP", "setting": "NT-ProBNP; 6 h", "value": "122 ± 10", "unit": "fmol/mL"},
      {"measurement": "Effect on plasma NT-proBNP", "setting": "NT-ProBNP; iv 10 μg/kg/min for 6 h", "value": "significantly reduced"}
    ]},
    {"molecule": "NC(=O)c1ncn(C2OC(CNCc3ccccc3)C(O)C2O)c1N", "note": "(stereo not shown) [GP-531 tartrate]", "values": [
      {"measurement": "Effect on plasma TnI", "setting": "TnI; Group I HF dogs, all doses (30, 100, 300 μg/kg/min), vs baseline", "value": "decreased significantly"},
      {"measurement": "Effect on plasma TnI", "setting": "TnI; Group II HF dogs, 30 μg/kg/min, not statistically significant", "value": "tended to decrease at the highest dose"}
    ]}
  ]
}
